# Data reported in PubChem BioAssay (NCI).
#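 1) Cells in 96-well plates. 2) Compound, 48 h, 5 concentrations. 3) Linear interpolation between surrounding doses. 4) Unreached endpoint = highest concentration. TGI is the concentration that stops growth completely.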
# Assays:
# Experiment in all cases: NCI-60 cell line screen, 48 h
# [1] = test system: 786-0 renal
# [2] = test system: A498 renal
# [3] = test system: A549 NSCLC
# [4] = test system: ACHN renal
# [5] = test system: CCRF-CEM leukemia
# [6] = test system: COLO 205 colon
# [7] = test system: DLD-1 colon
# [8] = test system: DMS 273 small cell lung
# [9] = test system: EKVX NSCLC
# [10] = test system: HCC-2998 colon
# [11] = test system: HCT-15 colon
# [12] = test system: HL-60(TB) leukemia
# [13] = test system: HOP-62 NSCLC
# [14] = test system: HOP-92 NSCLC
# [15] = test system: HT29 colon
# [16] = test system: IGROV1 ovarian
# [17] = test system: K-562 leukemia
# [18] = test system: KM12 colon
# [19] = test system: LOX IMVI melanoma
# [20] = test system: LXFL 529 NSCLC
# [21] = test system: M14 melanoma
# [22] = test system: MALME-3M melanoma
# [23] = test system: MOLT-4 leukemia
# [24] = test system: NCI-H23 lung
# [25] = test system: NCI-H460 lung
# [26] = test system: OVCAR-3 ovarian
# [27] = test system: OVCAR-5 ovarian
# [28] = test system: OVCAR-8 ovarian
# [29] = test system: RPMI-8226 leukemia
# [30] = test system: RXF 393 renal
# [31] = test system: SF-268 CNS
# [32] = test system: SF-295 CNS
# [33] = test system: SF-539 CNS
# [34] = test system: SK-MEL-2 melanoma
# [35] = test system: SK-MEL-28 melanoma
# [36] = test system: SK-MEL-5 melanoma
# [37] = test system: SK-OV-3 ovarian
# [38] = test system: SNB-19 CNS
# [39] = test system: SNB-75 CNS
# [40] = test system: SNB-78 CNS
# [41] = test system: SR leukemia
# [42] = test system: SW-620 colon
# [43] = test system: TK-10 renal
# [44] = test system: U251 CNS
# [45] = test system: UACC-62 melanoma
# [46] = test system: UO-31 renal
# [47] = test system: XF 498 CNS
# [48] = test system: CAKI-1 renal
# [49] = test system: DMS 114 small cell lung
# [50] = test system: HCT-116 colon
# [51] = test system: HOP-18 NSCLC
# [52] = test system: KM20L2 colon
# [53] = test system: M19-MEL melanoma
# [54] = test system: NCI-H226 lung
# [55] = test system: NCI-H522 lung
# [56] = test system: OVCAR-4 ovarian
# [57] = test system: SN12C renal
# [58] = test system: UACC-257 melanoma
smiles,measurement,setting,value
COC1=CC(=O)C2C(C1=O)C(c1ccccc1)[C@H]2C (stereo partly specified),TGI,[1],> 100 µM
same,TGI,[2],> 100 µM
same,TGI,[3],> 100 µM
same,TGI,[4],68.5 µM
same,TGI,[5],> 100 µM
same,TGI,[6],> 100 µM
same,TGI,[7],> 10 µM
same,TGI,[8],> 100 µM
same,TGI,[9],> 100 µM
same,TGI,[10],> 100 µM
same,TGI,[11],35.9 µM
same,TGI,[12],> 100 µM
same,TGI,[13],> 100 µM
same,TGI,[14],49.4 µM
same,TGI,[15],> 100 µM
same,TGI,[16],> 100 µM
same,TGI,[17],> 100 µM
same,TGI,[18],> 100 µM
same,TGI,[19],> 100 µM
same,TGI,[20],> 100 µM
same,TGI,[21],> 100 µM
same,TGI,[22],57 µM
same,TGI,[23],> 10 µM
same,TGI,[24],> 100 µM
same,TGI,[25],> 100 µM
same,TGI,[26],> 100 µM
same,TGI,[27],> 100 µM
same,TGI,[28],> 100 µM
same,TGI,[29],> 100 µM
same,TGI,[30],> 100 µM
same,TGI,[31],> 100 µM
same,TGI,[32],> 100 µM
same,TGI,[33],> 100 µM
same,TGI,[34],> 100 µM
same,TGI,[35],> 100 µM
same,TGI,[36],> 100 µM
same,TGI,[37],> 100 µM
same,TGI,[38],> 100 µM
same,TGI,[39],> 100 µM
same,TGI,[40],> 10 µM
same,TGI,[41],> 100 µM
same,TGI,[42],36.6 µM
same,TGI,[43],> 100 µM
same,TGI,[44],> 100 µM
same,TGI,[45],> 100 µM
same,TGI,[46],> 100 µM
same,TGI,[47],49.1 µM
CC(C)C1=CC23CCC4C(C)(C(=O)O)CCCC4(C)C2CC1C1C(=O)N(c2ccccc2)C(=O)C13 (stereo unspecified),TGI,[1],> 100 µM
same,TGI,[3],> 100 µM
same,TGI,[4],> 100 µM
same,TGI,[48],> 100 µM
same,TGI,[5],> 100 µM
same,TGI,[6],52.3 µM
same,TGI,[7],> 100 µM
same,TGI,[49],> 100 µM
same,TGI,[8],> 100 µM
same,TGI,[50],> 100 µM
same,TGI,[11],> 100 µM
same,TGI,[12],> 100 µM
same,TGI,[51],> 100 µM
same,TGI,[13],> 100 µM
same,TGI,[14],97.4 µM
same,TGI,[15],> 100 µM
same,TGI,[16],> 100 µM
same,TGI,[17],> 100 µM
same,TGI,[18],> 100 µM
same,TGI,[52],> 100 µM
same,TGI,[19],> 100 µM
same,TGI,[20],> 100 µM
same,TGI,[21],> 100 µM
same,TGI,[53],> 100 µM
same,TGI,[22],> 100 µM
same,TGI,[23],> 100 µM
same,TGI,[54],60.3 µM
same,TGI,[24],> 100 µM
same,TGI,[25],> 100 µM
same,TGI,[55],> 100 µM
same,TGI,[26],> 100 µM
same,TGI,[56],> 100 µM
same,TGI,[27],> 100 µM
same,TGI,[28],> 100 µM
same,TGI,[29],> 100 µM
same,TGI,[30],76.1 µM
same,TGI,[31],> 100 µM
same,TGI,[32],> 100 µM
same,TGI,[33],> 100 µM
same,TGI,[34],73.3 µM
same,TGI,[35],> 100 µM
same,TGI,[36],> 100 µM
same,TGI,[37],> 100 µM
same,TGI,[57],> 100 µM
same,TGI,[38],> 100 µM
same,TGI,[39],> 100 µM
same,TGI,[41],> 100 µM
same,TGI,[42],> 100 µM
same,TGI,[43],> 100 µM
same,TGI,[44],> 100 µM
same,TGI,[58],84.2 µM
same,TGI,[45],> 100 µM
same,TGI,[46],> 100 µM
same,TGI,[47],> 100 µM
